# Counter-ions that a name gives are not always drawn.
# Molecular target: T1, PIM1 serine/threonine kinase (Homo sapiens, UniProt P11309)
# T1 construct: purchased Carna Bioscience, Inc
# Assay: PIM1 serine/threonine kinase inhibitory effect
# Assay type: biochemical
# Conditions: PIM1 serine/threonine kinase activity; ATP 40 μM; 30° C., 30 minutes
# Procedure: Each test substance was prepared to 10 mM with dimethylsulfoxide (DMSO), and further diluted with DMSO so as to have concentrations of 1000, 300, 100, 30, 10, 3, 1, 0.3, 0.1, 0.03, 0.01, and 0.001 μM. Moreover, each dilution was further diluted 33.3-fold with an assay buffer to prepare a test substance solution. The composition of the assay buffer was 50 mM HEPES (pH 7.0), 0.02% NaN3, 0.01% Bovine Serum Albumin, 0.1 mM Orthovanadate, 1 mM Dithiothreitol, and 5 mM MgCl2.
# 5 μL of each test substance solution was added to 384-well plates (n=2), and then 2.5 μL of a substrate solution (substrate 3-biotin (Cisbio Bioassays SAS), final concentration in the reaction solution: 0.5 μM) and 2.5 μL of an ATP solution (in the cases of PIM1, 2, 3, the final concentrations in the reaction solutions were 40, 2, and 10 μM, respectively) were added, 5 μL of each of PIM1, 2, 3 serine/threonine kinase solutions (Carna Bioscience, Inc., the final concentrations in the reaction solutions were 0.15, 1.6, and 0.25 μg/ml, respectively) was finally added, and the mixture was reacted at 30° C. for 30 minutes. The test substance concentrations in the reaction solutions are 10000, 3000, 1000, 300, 100, 30, 10, 3, 1, 0.3, 0.1, and 0.01 nM.
# Thereafter, 15 μL of each detection solution (62.5 nM Streptavidin-XL665 (Cisbio Bioassays SAS), […] STK antibody-Cryptate (Cisbio Bioassays SAS), 50 mM HEPES (pH 7.0), 0.8 M KF, 0.1% Bovine Serum Albumin, 20 mM ethylenediaminetetraacetic acid) was added to each well. After stirring, the mixture was reacted at 30° C. for 1 hour. Absorbance (OD620, OD665) at 620 and 665 nm was measured with a microplate reader (SpectraMax M5e, Molecular Devices, LLC).
# Non-linear regression analysis was performed by an SAS system (SAS Institute Inc.) using the ratio (OD665/OD620) of the measured absorbance to calculate a test substance concentration (IC50) that inhibits PIM1 serine/threonine kinase activity by 50%.
# T1 sequence (P11309 whole entry): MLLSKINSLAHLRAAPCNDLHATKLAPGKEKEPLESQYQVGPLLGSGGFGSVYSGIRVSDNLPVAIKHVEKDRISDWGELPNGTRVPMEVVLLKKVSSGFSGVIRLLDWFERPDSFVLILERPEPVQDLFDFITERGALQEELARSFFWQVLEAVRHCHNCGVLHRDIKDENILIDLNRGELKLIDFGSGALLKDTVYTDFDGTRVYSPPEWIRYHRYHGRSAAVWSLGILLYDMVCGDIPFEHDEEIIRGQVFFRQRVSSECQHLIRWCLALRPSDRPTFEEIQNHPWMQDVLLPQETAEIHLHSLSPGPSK
row,SMILES,IC50 [nM]
1,"NCc1ccc(Nc2cc(-c3n[nH]c(=O)o3)ccc2C(F)(F)F)cc1 [Example 41, 5-{3-[4-(aminomethyl)anilino]-4-(trifluoromethyl)phenyl}-1,3,4-oxadiazol-2(3H)-one hydrochloride]",40
2,"NCCCNc1cc(-c2n[nH]c(=O)o2)ccc1C(F)(F)F [Example 2, 5-{3-[(3-aminopropyl)amino]-4-(trifluoromethyl)phenyl}-1,3,4-oxadiazol-2(3H)-one]",27
3,"C[C@H](Nc1cc(-c2n[nH]c(=O)o2)ccc1F)C1CCNCC1 [Example 80, 5-(4-fluoro-3-{[(1S)-1-(piperidin-4-yl)ethyl]amino}phenyl)-1,3,4-oxadiazol-2(3H)-one hydrochloride]",56
4,"NC1CCN(c2cc(-c3n[nH]c(=O)o3)ccc2C(F)(F)F)CC1 [Example 9, 5-[3-(4-aminopiperidin-1-yl)-4-(trifluoromethyl)phenyl]-1,3,4-oxadiazol-2(3H)-one hydrochloride]",45
5,"C[C@H](Nc1cc(-c2n[nH]c(=O)o2)ccn1)C1CCNCC1 [Example 112, 5-(2-{[(1S)-1-(piperidin-4-yl)ethyl]amino}pyridin-4-yl)-1,3,4-oxadiazol-2(3H)-one dihydrochloride]",600
6,"CC(C)(C)OC(=O)[C@H]1CC[C@H](CNc2cc(-c3n[nH]c(=O)o3)ccc2C(F)(F)F)CC1 [Example 118, tert-butyl (1r,4r)-4-{[5-(5-oxo-4,5-dihydro-1,3,4-oxadiazol-2-yl)-2-(trifluoromethyl)anilino]methyl}cyclohexane-1-carboxylate]",7300
7,"Cc1c(-c2n[nH]c(=O)o2)cc(Cl)c(Cl)c1N[C@@H](C)C1CCNCC1 [Example 93, 5-(4,5-dichloro-2-methyl-3-{[(1S)-1-(piperidin-4-yl)ethyl]amino}phenyl)-1,3,4-oxadiazol-2(3H)-one hydrochloride]",36
8,"CC(C)(C)OC(=O)N1CCN(c2cc(-c3n[nH]c(=O)o3)ccc2Cl)CC1 [Example 7, tert-butyl 4-[2-chloro-5-(5-oxo-4,5-dihydro-1,3,4-oxadiazol-2-yl)phenyl]piperazine-1-carboxylate]",4100
9,"NCc1cccc(-c2cc(-c3n[nH]c(=O)o3)ccc2C(F)(F)F)c1 [Example 21, 5-[3′-(aminomethyl)-6-(trifluoromethyl)[1,1′-biphenyl]-3-yl]-1,3,4-oxadiazol-2(3H)-one hydrochloride]",160
10,"O=c1[nH]nc(-c2ccc(Cl)c(N3CCNCC3)c2)o1 [Example 8, 5-[4-chloro-3-(piperazin-1-yl)phenyl]-1,3,4-oxadiazol-2(3H)-one hydrochloride]",810
11,"C[C@H](Nc1cc(-c2n[nH]c(=O)o2)ccc1S(C)(=O)=O)C1CCNCC1 [Example 128, 5-[4-(methanesulfonyl)-3-{[(1S)-1-(piperidin-4-yl)ethyl]amino}phenyl]-1,3,4-oxadiazol-2(3H)-one hydrochloride]",82
12,"O=c1[nH]nc(-c2ccc(C(F)(F)F)c(-c3ccc(OCC4CCNCC4)cc3)c2)o1 [Example 23, 5-{4′-[(piperidin-4-yl)methoxy]-6-(trifluoromethyl)[1,1′-biphenyl]-3-yl}-1,3,4-oxadiazol-2(3H)-one hydrochloride]",110
13,"NC(=O)[C@H]1CC[C@H](CNc2cc(-c3n[nH]c(=O)o3)ccc2C(F)(F)F)CC1 [Example 121, (1r,4r)-4-{[5-(5-oxo-4,5-dihydro-1,3,4-oxadiazol-2-yl)-2-(trifluoromethyl)anilino]methyl}cyclohexane-1-carboxamide]",120
14,"CC(=O)N1CCC(N(C)Cc2cc(-c3n[nH]c(=O)o3)ccc2Cl)CC1 [Example 215, 5-(3-{[(1-acetylpiperidin-4-yl)(methyl)amino]methyl}-4-chlorophenyl)-1,3,4-oxadiazol-2(3H)-one hydrochloride]",8800
15,"O=c1[nH]nc(-c2ccc(C(F)(F)F)c(N[C@@H](C3CCNCC3)C(F)(F)F)c2)o1 [Example 147, 5-[4-(trifluoromethyl)-3-{[(1S)-2,2,2-trifluoro-1-(piperidin-4-yl)ethyl]amino}phenyl]-1,3,4-oxadiazol-2(3H)-one hydrochloride]",23
16,"CN(Cc1cc(-c2n[nH]c(=O)o2)ccc1Cl)C1CCNCC1 [Example 205, 5-(4-chloro-3-{[methyl(piperidin-4-yl)amino]methyl}phenyl)-1,3,4-oxadiazol-2(3H)-one dihydrochloride]",290
17,"CC(C)(C)OC(=O)NCc1cccc(-c2cc(-c3n[nH]c(=O)o3)ccc2Cl)c1 [Example 17, tert-butyl {[2′-chloro-5′-(5-oxo-4,5-dihydro-1,3,4-oxadiazol-2-yl)[1,1′-biphenyl]-3-yl]methyl}carbamate]",1300
18,"O=c1[nH]nc(-c2ccc(C(F)(F)F)c(NC[C@H]3CC[C@H](CO)CC3)c2)o1 [Example 120, 5-[3-({[(1r,4r)-4-(hydroxymethyl)cyclohexyl]methyl}amino)-4-(trifluoromethyl)phenyl]-1,3,4-oxadiazol-2(3H)-one]",590
19,"COc1ccc(-c2n[nH]c(=O)o2)cc1N[C@@H](C)C1CCNCC1 [Example 82, 5-(4-methoxy-3-{[(1S)-1-(piperidin-4-yl)ethyl]amino}phenyl)-1,3,4-oxadiazol-2(3H)-one dihydrochloride]",71
20,"CC(C[C@@H]1CCNC1)Nc1cc(-c2n[nH]c(=O)o2)ccc1C(F)(F)F (stereo partly drawn) [Example 134, 5-[3-({1-[(3S)-pyrrolidin-3-yl]propan-2-yl}amino)-4-(trifluoromethyl)phenyl]-1,3,4-oxadiazol-2(3H)-one hydrochloride]",14
21,"CC(C[C@H]1CCNC1)Nc1cc(-c2n[nH]c(=O)o2)ccc1C(F)(F)F (stereo partly drawn) [Example 136, 5-[3-({1-[(3R)-pyrrolidin-3-yl]propan-2-yl}amino)-4-(trifluoromethyl)phenyl]-1,3,4-oxadiazol-2(3H)-one hydrochloride]",16
22,"N[C@H]1CC[C@H](CNc2cccc(-c3n[nH]c(=O)o3)c2)CC1 [Example 62, 5-[3-({[(1r,4r)-4-aminocyclohexyl]methyl}amino)phenyl]-1,3,4-oxadiazol-2(3H)-one hydrochloride]",140
23,"C[C@H](Nc1cc(-c2n[nH]c(=O)o2)cc(C2CC2)c1Cl)C1CCNCC1 [Example 102, 5-(4-chloro-3-cyclopropyl-5-{[(1S)-1-(piperidin-4-yl)ethyl]amino}phenyl)-1,3,4-oxadiazol-2(3H)-one]",36
24,"CC(C)(C)OC(=O)NCc1ccc(-c2cc(-c3n[nH]c(=O)o3)ccc2C(F)(F)F)cc1 [Example 19, tert-butyl {[5′-(5-oxo-4,5-dihydro-1,3,4-oxadiazol-2-yl)-2′-(trifluoromethyl)[1,1′-biphenyl]-4-yl]methyl}carbamate]",1500
25,"O=c1[nH]nc(-c2ccc(C(F)(F)F)c(NC[C@H]3CC[C@H](C(=O)O)CC3)c2)o1 [Example 119, (1r,4r)-4-{[5-(5-oxo-4,5-dihydro-1,3,4-oxadiazol-2-yl)-2-(trifluoromethyl)anilino]methyl}cyclohexane-1-carboxylic acid]",1800

# From patent US20220024921A1, “1,3,4-OXADIAZOLONE COMPOUND AND PHARMACEUTICAL” (NIPPON SHINYAKU CO., LTD., priority 2018, published 2022)
